From ChEMBL document CHEMBL6153028, “Understanding the synergistic sensitization of natural products and antibiotics: An effective strategy to combat MRSA” (2025)

Assays:
Assay type in all cases: functional
[1] = test system: Staphylococcus aureus; experiment: Synergistic antimicrobial activity against methicillin-resistant Staphylococcus aureus assessed as fractional inhibitory concentration index in presence of penicillin G incubated for 24 hrs by checkerboard assay
[2] = test system: Staphylococcus aureus; experiment: Synergistic antimicrobial activity against methicillin-resistant Staphylococcus aureus assessed as fractional inhibitory concentration index in presence of ampicillin incubated for 24 hrs by checkerboard assay
[3] = test system: Staphylococcus aureus; experiment: Synergistic antimicrobial activity against methicillin-resistant Staphylococcus aureus assessed as fractional inhibitory concentration index in presence of cefixime incubated for 24 hrs by checkerboard assay
[4] = test system: Staphylococcus aureus; experiment: Synergistic antimicrobial activity against methicillin-resistant Staphylococcus aureus assessed as fractional inhibitory concentration index in presence of amoxicillin incubated for 24 hrs by checkerboard assay
[5] = test system: Staphylococcus aureus; experiment: Synergistic antimicrobial activity against methicillin-resistant Staphylococcus aureus assessed as fractional inhibitory concentration index in presence of Ceftriaxone incubated for 24 hrs by checkerboard assay
[6] = test system: Staphylococcus aureus; experiment: Synergistic antibacterial activity against methicillin resistant Staphylococcus aureus assessed as fractional inhibitory concentration index in presence of gentamicin
[7] = test system: Staphylococcus aureus; experiment: Synergistic antibacterial activity against methicillin resistant Staphylococcus aureus assessed as fractional inhibitory concentration index in presence of ciprofloxacin
[8] = test system: Staphylococcus aureus; experiment: Synergistic antibacterial activity against methicillin resistant Staphylococcus aureus assessed as fractional inhibitory concentration index in presence of oxacillin incubated for 24 hrs by checkerboard assay
[9] = test system: Staphylococcus aureus; experiment: Synergistic antibacterial activity against methicillin resistant Staphylococcus aureus assessed as fractional inhibitory concentration index in presence of norfloxacin; settings: time 24 hrs
[10] = test system: Staphylococcus aureus; experiment: Synergistic antimicrobial activity against methicillin-resistant Staphylococcus aureus assessed as fractional inhibitory concentration index in presence of chloramphenicol by checkerboard assay
[11] = test system: Staphylococcus aureus; experiment: Synergistic antimicrobial activity against methicillin-resistant Staphylococcus aureus assessed as fractional inhibitory concentration index in presence of fosfomycin by checkerboard assay
[12] = test system: Staphylococcus aureus; experiment: Synergistic antimicrobial activity against methicillin-resistant Staphylococcus aureus assessed as fractional inhibitory concentration index in presence of gentamicin by checkerboard assay
[13] = test system: Staphylococcus aureus; experiment: Synergistic antimicrobial activity against methicillin-resistant Staphylococcus aureus assessed as fractional inhibitory concentration index in presence of minocycline by checkerboard assay
[14] = test system: Staphylococcus aureus; experiment: Synergistic antibacterial activity against methicillin resistant Staphylococcus aureus clinical isolate 003 assessed as fractional inhibitory concentration in presence of norfloxacin
[15] = test system: Staphylococcus aureus; experiment: Synergistic antibacterial activity against methicillin resistant Staphylococcus aureus assessed as fractional inhibitory concentration index in presence of erythromycin incubated for 24 hrs by checkerboard assay
[16] = test system: Staphylococcus aureus; experiment: Antibacterial activity against methicillin-resistant Staphylococcus aureus assessed as reduction in microbial growth by CLSI based broth microdilution method
[17] = test system: Staphylococcus aureus; experiment: Synergistic antimicrobial activity against methicillin resistant Staphylococcus aureus assessed as fractional inhibitory concentration index incubated for 24 hrs in presence of oxytetracycline by checkerboard assay
[18] = test system: Staphylococcus aureus; experiment: Synergistic antimicrobial activity against methicillin resistant Staphylococcus aureus assessed as fractional inhibitory concentration index incubated for 24 hrs in presence of linezolid by checkerboard assay
[19] = test system: Staphylococcus aureus; experiment: Synergistic antimicrobial activity against methicillin resistant Staphylococcus aureus assessed as fractional inhibitory concentration index incubated for 24 hrs in presence of daptomycin by checkerboard assay
[20] = test system: Staphylococcus aureus; experiment: Synergistic antimicrobial activity against methicillin resistant Staphylococcus aureus assessed as fractional inhibitory concentration index incubated for 24 hrs in presence of Oxacillin by checkerboard assay
[21] = test system: Staphylococcus aureus; experiment: Synergistic antibacterial activity against methicillin resistant Staphylococcus aureus assessed as fractional inhibitory concentration index in presence of levofloxacin
[22] = test system: Staphylococcus aureus; experiment: Synergistic antibacterial activity against methicillin resistant Staphylococcus aureus assessed as fractional inhibitory concentration index in presence of ceftazidime
[23] = test system: Staphylococcus aureus; experiment: Synergistic antimicrobial activity against methicillin-resistant Staphylococcus aureus CCARM 3089 assessed as fractional inhibitory concentration index in presence of Chloramphenicol incubated for 24 hrs by checkerboard assay
[24] = test system: Staphylococcus aureus; experiment: Synergistic antimicrobial activity against methicillin-resistant Staphylococcus aureus CCARM 3089 assessed as fractional inhibitory concentration index in presence of oxacillin incubated for 24 hrs by checkerboard assay
[25] = test system: Staphylococcus aureus; experiment: Synergistic antimicrobial activity against methicillin-resistant Staphylococcus aureus assessed as fractional inhibitory concentration index incubated for 24 hrs in presence of ampicillin by checkerboard assay
[26] = test system: Staphylococcus aureus; experiment: Synergistic antimicrobial activity against methicillin resistant Staphylococcus aureus assessed as fractional inhibitory concentration index incubated for 24 hrs in presence of Norfloxacin by checkerboard assay
[27] = test system: Staphylococcus aureus; experiment: Synergistic antimicrobial activity against methicillin resistant Staphylococcus aureus assessed as fractional inhibitory concentration index incubated for 24 hrs in presence of rifampicin by checkerboard assay
[28] = test system: Staphylococcus aureus; experiment: Synergistic antibacterial activity against methicillin resistant Staphylococcus aureus assessed as fractional inhibitory concentration index in presence of ampicillin
[29] = test system: Staphylococcus aureus; experiment: Synergistic antibacterial activity against methicillin resistant Staphylococcus aureus assessed as fractional inhibitory concentration index in presence of ceftriaxone
[30] = test system: Staphylococcus aureus; experiment: Synergistic antimicrobial activity against methicillin-resistant Staphylococcus aureus assessed as fractional inhibitory concentration index in presence of teicoplanin by checkerboard assay
[31] = test system: Staphylococcus aureus; experiment: Synergistic antibacterial activity against methicillin resistant Staphylococcus aureus assessed as fractional inhibitory concentration index in presence of tetracycline
[32] = test system: Staphylococcus aureus; experiment: Synergistic antibacterial activity against […] Staphylococcus aureus ATCC 29213 assessed as fractional inhibitory concentration index incubated for 24 hrs in presence of ciprofloxacin by checkerboard assay
[33] = test system: Staphylococcus aureus; experiment: Synergistic antibacterial activity against […] Staphylococcus aureus ATCC 29213 assessed as fractional inhibitory concentration index incubated for 24 hrs in presence of amoxicillin by checkerboard assay
[34] = test system: Staphylococcus aureus; experiment: Synergistic antibacterial activity against […] Staphylococcus aureus ATCC 29213 assessed as fractional inhibitory concentration index incubated for 24 hrs in presence of pencillin by checkerboard assay

Compound: O=c1cc(-c2ccccc2)c2cc(O)c(O)cc2o1
- fractional inhibitory concentration index (FICI) [1]: <0.5
- fractional inhibitory concentration index (FICI) [2]: <0.5
- fractional inhibitory concentration index (FICI) [3]: <0.5
- fractional inhibitory concentration index (FICI) [4]: <0.5
- fractional inhibitory concentration index (FICI) [5]: <0.5

Compound: CC(C)=CCc1c(O)cc(O)c2c1O[C@H](c1ccc(O)cc1)CC2=O
- fractional inhibitory concentration index (FICI) [6]: 0.25
- fractional inhibitory concentration index (FICI) [7]: 0.5
- fractional inhibitory concentration index (FICI) [8]: 0.31
- fractional inhibitory concentration index (FICI) [9]: 0.5

Compound: COc1cc(OC/C=C(\C)CCC=C(C)C)c2ccc(=O)oc2c1
- fractional inhibitory concentration index (FICI) [10]: <0.5
- fractional inhibitory concentration index (FICI) [11]: <0.5
- fractional inhibitory concentration index (FICI) [12]: <0.5
- fractional inhibitory concentration index (FICI) [13]: <0.5

Compound: CC(C)=CCC/C(C)=C\C=O
- fractional inhibitory concentration index (FICI) [14]: <0.5
- fractional inhibitory concentration index (FICI) [15]: <0.5

Compound: C=CC(C)(C)c1cc(-c2coc3cc(O)cc(O)c3c2=O)c(CC=C(C)C)c(O)c1O
- MIC [16]: 12.5 µg/mL

Compound: CC[C@@H]1CC[C@@]2(C)C(C)=CCC[C@@H]2[C@@]1(C)CCC1=CC(=O)O[C@@H]1O
- fractional inhibitory concentration index (FICI) [17]: 0.321
- fractional inhibitory concentration index (FICI) [18]: 0.34
- fractional inhibitory concentration index (FICI) [19]: 0.32
- fractional inhibitory concentration index (FICI) [20]: 0.223

Compound: C/C(=C\C(O)=C\O)[C@@H]1Oc2cc(O[C@@H]3O[C@@H](C)[C@H](O)[C@@H](O)[C@H]3O)cc(O)c2C(=O)[C@H]1O
- fractional inhibitory concentration index (FICI) [21]: 0.25
- fractional inhibitory concentration index (FICI) [22]: 0.187

Compound: COc1c(C)c(O)c(CC=C(C)C)c(O)c1Cc1c(O)c(C(C)=O)c(O)c(CC=C(C)C)c1OC
- fractional inhibitory concentration index (FICI) [23]: 0.393
- fractional inhibitory concentration index (FICI) [24]: 0.008

Compound: Oc1ccc([C@H]2Oc3cc(O)cc4c3[C@@H]2c2cc(O)cc3c2[C@H](c2cc(O)cc5c2[C@H]4[C@@H](c2ccc(O)cc2)O5)[C@@H](c2ccc(O)cc2)O3)cc1
- fractional inhibitory concentration index (FICI) [25]: <0.5
- fractional inhibitory concentration index (FICI) [26]: <0.5
- fractional inhibitory concentration index (FICI) [27]: <0.5

Compound: O=c1cc(-c2ccc(O)cc2)oc2cc(O)cc(O)c12 [APIGENIN]
- fractional inhibitory concentration index (FICI) [28]: 0.18
- fractional inhibitory concentration index (FICI) [29]: 0.18

Compound: COc1cc(OC)c2ccc(=O)oc2c1OCC=C(C)C [ARTANIN]
- fractional inhibitory concentration index (FICI) [30]: <0.5

Compound: COc1cc2oc(-c3ccc(O)cc3O)c(CC=C(C)C)c(=O)c2c(O)c1/C=C/C(C)C [ARTOCARPIN]
- fractional inhibitory concentration index (FICI) [28]: 0.37
- fractional inhibitory concentration index (FICI) [9]: 0.15
- fractional inhibitory concentration index (FICI) [31]: 0.24

Compound: O=c1cc(-c2ccccc2)oc2cc(O)c(O)c(O)c12 [BAICALEIN]
- fractional inhibitory concentration index (FICI) [32]: <0.5
- fractional inhibitory concentration index (FICI) [33]: 0.14
- fractional inhibitory concentration index (FICI) [34]: 0.14
